Measured values reported in US7196110B2, “N-substituted tricyclic 3-aminopyrazoles as inhibitors for the treatment of cell proliferative disorders” (Janssen Phamaceutica N.V., priority 2002, dated 2007).
“And” between values parts separate entries of the source, which are not always exact repeats. Equal values may be shown once.

Tests used:
[1] = biological target: T1, PDGF-receptor beta enzyme comprising the tyrosine kinase domain (Homo sapiens, UniProt P09619); assay: Inhibition of PDGF-receptor kinase activity (cell-free, PLC1 peptide, 33P Flashplate); type: biochemical; details: PDGF-R kinase activity; for inhibition at 10 µM: compound at 10 uM, read-out: Percent Inhibition @ 10 uM; for IC50: read-out: IC50
T1 construct: from amino acid 545 to 1106 of GenBank Access NO: AAA36427
Outline: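 Recombinant kinase domain (aa 545–1106) phosphorylated a biotinylated PLC1 peptide with 5 μM ATP plus 33P-γ-ATP, in Tris pH 8, MgCl2, Na3VO4 and 1 mM DTT, for 60 min at 30 °C. Retained 33P was counted after washing. IC50 is the concentration halving activity versus no-inhibitor reactions.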

c-Abl kinase = c-Abl kinase (Abelson murine leukemia virus, UniProt P00521); assay: Inhibition of c-Abl kinase activity (cell-free, Abl peptide substrate, 33P Flashplate); type: biochemical; details: IC50 for the c-Abl kinase activity
Procedure: The inhibitory activity of compounds within the scope of the invention on c-Abl kinase activity was tested according to the following procedure.
• 1. 10× Kinase Buffer [500 mM Tris-HCl pH=8, 100 mM MgCl2, 1 mM Na3VO4] • 2. 10 mM DTT [final concentration 1 mM] • 3. 10 mM ATP [final concentration 5 μM] (Gibco, Cat No:18330-019, Carlsbad, Calif.) • 4. ^33P-γ-ATP [NEG-602H; 2000–3000 Ci/mmol], 2 μCuries per well at 10 μCi/μl (0.2 μl/well) • 5. Abl enzyme (New England Biolabs, Cat No. P6050L, Beverly, Mass.) at 100 Units/μl use 10 Units/well (0.1 μl/well) • 6. Enzyme Dilution Buffer [50 mM Tris-HCl pH=8.0, 0.1% BSA] • 7. Wash/Stop Buffer [PBS+100 mM EDTA] • 8. NEN Streptavidin Flashplates (New England Nuclear, Cat No. SMP-103, Boston, Mass.). • 9. Abl Peptide Substrate (Biotin-[…]-amide) at 1 mM in 50 mM Tris-HCL pH=8.0. (Use at 1.0 μM). Procedure
Reagents were first mixed according to the following regimen:
The above reaction mixture was dispensed into each well of a Flashplate at 70 μl/well. To test the effect of a compound on Abl kinase activity, the test compound either in a fixed concentration or in serially diluted concentrations in 100% DMSO was added to appropriate wells at 1 μl/well.
Enzyme Abl was diluted in enzyme dilution buffer as following:
The kinase reaction was started by adding 30 μl of diluted Abl enzyme solution to each well on the Flashplate containing hot ATP (2 μCi/well) and Abl peptide substrate (at 1 μM final conc.), except wells of column 12 rows E and F, which were used to calculate the plate background. The Flashplate was swirled to mix and was incubated at 30° C. for 60 minutes. Then, the reaction mixture was discarded and the Flashplate was washed 3 times each with 200 μL Wash/Stop Buffer. Subsequently, each well on the Flashplate was filled with 200 μl of Wash/Stop buffer. The amount of ^33P retained in each well was measured using a Packard TopCount after the plate was sealed with a transparent plate sealer.
In order to test the potency of inhibition of present compounds, an IC50 for an individual compound was measured using the above procedure. As used herein, the IC50 for c-Abl kinase activity refers to the concentration of an inhibitor at which the activity of c-Abl kinase is reduced by one-half as compared with reactions containing no inhibitor.

T1 sequence (P09619 545-1106): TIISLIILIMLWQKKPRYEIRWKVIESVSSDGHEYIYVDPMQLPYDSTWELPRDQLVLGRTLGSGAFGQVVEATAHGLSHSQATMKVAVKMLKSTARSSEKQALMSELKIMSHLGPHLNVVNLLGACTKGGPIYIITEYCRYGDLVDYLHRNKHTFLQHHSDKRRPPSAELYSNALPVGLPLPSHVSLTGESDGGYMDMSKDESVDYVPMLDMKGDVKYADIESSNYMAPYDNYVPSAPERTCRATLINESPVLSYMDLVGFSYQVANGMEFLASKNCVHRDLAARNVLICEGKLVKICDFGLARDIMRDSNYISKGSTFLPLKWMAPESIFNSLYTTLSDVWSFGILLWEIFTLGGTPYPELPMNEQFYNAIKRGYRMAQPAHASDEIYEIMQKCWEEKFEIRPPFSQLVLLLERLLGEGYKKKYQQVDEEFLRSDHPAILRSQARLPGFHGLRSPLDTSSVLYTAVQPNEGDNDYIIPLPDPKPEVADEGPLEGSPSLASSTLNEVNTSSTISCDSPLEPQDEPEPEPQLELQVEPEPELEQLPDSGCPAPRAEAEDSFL
Chain of c-Abl kinase (P00521 115-385): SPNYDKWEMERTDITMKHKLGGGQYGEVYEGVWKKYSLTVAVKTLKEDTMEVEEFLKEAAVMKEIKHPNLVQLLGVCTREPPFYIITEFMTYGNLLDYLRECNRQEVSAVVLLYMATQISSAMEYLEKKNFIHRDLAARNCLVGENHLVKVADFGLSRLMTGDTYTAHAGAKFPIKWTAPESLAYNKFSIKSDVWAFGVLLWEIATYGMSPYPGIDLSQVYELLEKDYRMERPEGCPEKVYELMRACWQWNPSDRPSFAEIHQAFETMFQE

Structure (SMILES)	inhibition at 10 µM [1]	IC50 [1]	IC50 (c-Abl kinase)
COc1cccc(Nc2[nH]nc3c2Cc2cc(F)c(OC)cc2-3)c1 [Compound 360, (6-Fluoro-7-methoxy-2,4-dihydro-indeno[1,2-c]pyrazol-3-yl)-(3-methoxy-phenyl)-amine]	98%	0.0075 µM	0.077 µM
COc1cc2c(cc1OCCCN1CCCC1)Cc1c-2n[nH]c1Nc1cccc(F)c1 [Compound 180, (3-Fluoro-phenyl)-[7-methoxy-6-(3-pyrrolidin-1-yl-propoxy)-2,4-dihydro-indeno[1,2-c]pyrazol-3-yl]-amine]	98.5%	0.0133 µM	0.082 µM
COc1cccc2c1Cc1c-2n[nH]c1Nc1cccc(F)c1 [Compound 422, (3-Fluoro-phenyl)-(5-methoxy-2,4-dihydro-indeno[1,2-c]pyrazol-3-yl)-amine]	83%	0.0297 µM	3.08 µM
COc1cc2c(cc1OCC(O)CN1CCCC1)Cc1c-2n[nH]c1Nc1ccc(F)c(Cl)c1 (stereo not drawn) [Compound 280, 1-[3-(3-Chloro-4-fluoro-phenylamino)-7-methoxy-2,4-dihydro-indeno[1,2-c]pyrazol-6-yloxy]-3-pyrrolidin-1-yl-propan-2-ol]	102%	0.00172 µM	0.363 µM
COc1cc2c(cc1OCCCN1CCOCC1)Cc1c-2n[nH]c1Nc1cccnc1 [Compound 129, [7-Methoxy-6-(3-morpholin-4-yl-propoxy)-2,4-dihydro-indeno[1,2-c]pyrazol-3-yl]-pyridin-3-yl-amine]	53.5%	0.0367 µM	10.8 µM and 2.36 µM
Fc1cccc(Nc2[nH]nc3c2oc2ccccc23)c1 [Compound 380, (3-Fluoro-phenyl)-(2H-8-oxa-2,3-diaza-cyclopenta[a]inden-1-yl)-amine]	99.5%	0.0153 µM	0.327 µM
CCOC(=O)CC(=O)n1nc(Nc2cccc(F)c2)c2c1-c1cc(OC)c(OC)cc1C2 [Compound 459, 3-[3-(3-Fluoro-phenylamino)-6,7-dimethoxy-4H-indeno[1,2-c]pyrazol-1-yl]-3-oxo-propionic acid ethyl ester]	100%	0.0365 µM	0.07 µM
COc1cc2c(cc1OC)-c1n[nH]c(Nc3ccc(OCc4ccccc4)cc3)c1C2 [Compound 218, (4-Benzyloxy-phenyl)-(6,7-dimethoxy-2,4-dihydro-indeno[1,2-c]pyrazol-3-yl)-amine]	81%	2.01 µM	0.439 µM
COc1cccc(Nc2[nH]nc3c2Cc2cc(OCC(O)CO)c(OC)cc2-3)c1 (stereo not drawn) [Compound 260, 3-[7-Methoxy-3-(3-methoxy-phenylamino)-2,4-dihydro-indeno[1,2-c]pyrazol-6-yloxy]-propane-1,2-diol]	91%	0.0015 µM	0.013 µM
OCCCOc1cc2c(cc1OCCCO)-c1n[nH]c(Nc3cccc(F)c3)c1C2 [Compound 398, 3-[3-(3-Fluoro-phenylamino)-6-(3-hydroxy-propoxy)-2,4-dihydro-indeno[1,2-c]pyrazol-7-yloxy]-propan-1-ol]	96%	0.00682 µM	0.01 µM
COc1cc2c(cc1OC)-c1n[nH]c(Nc3cccc(OCc4ccccc4)c3)c1C2 [Compound 54, (3-Benzyloxy-phenyl)-(6,7-dimethoxy-2,4-dihydro-indeno[1,2-c]pyrazol-3-yl)-amine]	76%	0.0348 µM	0.971 µM
COc1cc2c(cc1OC)C(C)c1c-2n[nH]c1Nc1ccccc1 (stereo not drawn) [Compound 247, (6,7-Dimethoxy-4-methyl-2,4-dihydro-indeno[1,2-c]pyrazol-3-yl)-phenyl-amine]	96%	0.07 µM	0.033 µM
COc1cc2c(cc1F)Cc1c-2n[nH]c1Nc1ccc(F)c(Cl)c1 [Compound 359, (3-Chloro-4-fluoro-phenyl)-(6-fluoro-7-methoxy-2,4-dihydro-indeno[1,2-c]pyrazol-3-yl)-amine]	98.5%	0.0415 µM	0.143 µM
Fc1cccc(Nc2[nH]nc3c2Cc2ccccc2-3)c1 [Compound 337, (2,4-Dihydro-indeno[1,2-c]pyrazol-3-yl)-(3-fluoro-phenyl)-amine]	100%	0.0088 µM	2.74 µM
COc1cccc(Nc2[nH]nc3c2Cc2cc(Br)c(OC)cc2-3)c1 [Compound 370, (6-Bromo-7-methoxy-2,4-dihydro-indeno[1,2-c]pyrazol-3-yl)-(3-methoxy-phenyl)-amine]	94%	0.0122 µM	0.006 µM
COc1ccc(OC)c(Nc2[nH]nc3c2Cc2cc(F)ccc2-3)c1 [Compound 203, (2,5-Dimethoxy-phenyl)-(6-fluoro-2,4-dihydro-indeno[1,2-c]pyrazol-3-yl)-amine]	86%	0.016 µM	0.16 µM
COc1cc2c(cc1OCCCN(C)C)Cc1c-2n[nH]c1Nc1cccc(F)c1 [Compound 199, [6-(3-Dimethylamino-propoxy)-7-methoxy-2,4-dihydro-indeno[1,2-c]pyrazol-3-yl]-(3-fluoro-phenyl)-amine]	83%	0.0059 µM	0.027 µM
COc1cc2c(cc1OC)-c1n[nH]c(Nc3ccc(F)cc3)c1C2 [Compound 13, (6,7-Dimethoxy-2,4-dihydro-indeno[1,2-c]pyrazol-3-yl)-(4-fluoro-phenyl)-amine]	91%	0.0065 µM	0.173 µM
Cc1ccc2c(c1)-c1n[nH]c(Nc3cc(F)ccc3F)c1C2 [Compound 185, (2,5-Difluoro-phenyl)-(7-methyl-2,4-dihydro-indeno[1,2-c]pyrazol-3-yl)-amine]	84%	0.05 µM	0.666 µM
Fc1cccc(Nc2[nH]nc3c2Cc2ccc(F)cc2-3)c1 [Compound 334, (7-Fluoro-2,4-dihydro-indeno[1,2-c]pyrazol-3-yl)-(3-fluoro-phenyl)-amine]	99.5%	0.00869 µM	3.3 µM
CCOc1cccc(Nc2[nH]nc3c2Cc2cc(OCCCO)c(OC)cc2-3)c1 [Compound 376, 3-[3-(3-Ethoxy-phenylamino)-7-methoxy-2,4-dihydro-indeno[1,2-c]pyrazol-6-yloxy]-propan-1-ol]	100%	0.0091 µM	0.06 µM
CCOc1cc2c(cc1OCC(O)CN1CCCC1)-c1n[nH]c(Nc3cccnc3)c1C2 (stereo not drawn) [Compound 461, 1-[6-Ethoxy-3-(pyridin-3-ylamino)-2,4-dihydro-indeno[1,2-c]pyrazol-7-yloxy]-3-pyrrolidin-1-yl-propan-2-ol]	97.5%	0.00755 µM	0.337 µM
COc1cc2c(cc1OCCCO)Cc1c-2n[nH]c1Nc1ccc(F)c(Cl)c1 [Compound 267, 3-[3-(3-Choloro-4-fluoro-phenylamino)-7-methoxy-2,4-dihydro-indeno[1,2-c]pyrazol-6-yloxy]-propan-1-ol]	93.5%	0.0106 µM	0.326 µM
CCOc1cc2c(cc1OCC)-c1n[nH]c(NCc3ccccc3Cl)c1C2 [Compound 292, (2-Chloro-benzyl)-(6,7-diethoxy-2,4-dihydro-indeno[1,2-c]pyrazol-3-yl)-amine]	86.5%	0.0182 µM	0.001 µM
CN(C)CCCOc1cccc2c1Cc1c-2n[nH]c1Nc1cccc(F)c1 [Compound 90, [5-(3-Dimethylamino-propoxy)-2,4-dihydro-indeno[1,2-c]pyrazol-3-yl]-(3-fluoro-phenyl)-amine]	97%	0.0087 µM	10.3 µM
COc1cc2c(cc1OCCCO)Cc1c-2n[nH]c1NCc1c(Cl)cccc1Cl [Compound 448, 3-[3-(2,6-Dichloro-benzylamino)-7-methoxy-2,4-dihydro-indeno[1,2-c]pyrazol-6-yloxy]-propan-1-ol]	100%	0.00177 µM	0.003 µM
